Reference: the supplement of paper PMC10307832

How the values were obtained:
Assay in all cases: relative viability (nuclei count vs DMSO), 5 days (fraction); higher = more cells survive
201T = system: 201T
Outline: (§1)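 Each reported value is a median over duplicate plates. It expresses relative viability: treated-well nuclei count divided by vehicle-well nuclei count. Lung cancer cell lines in 1536-well plates were dosed by pin tool a day after seeding, alone with one drug or with a fixed anchor-drug dose plus five library-drug doses (not always all listed) in √10 steps, and nuclei were counted after 5 days.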

COR-L 105 = system: COR-L 105
Outline: as §1

COR-L23 = system: COR-L23
Outline: as §1

EKVX = system: EKVX
Outline: as §1

EPLC-272H = system: EPLC-272H
Outline: as §1

H3255 = system: H3255
Outline: as §1

HCC-15 = system: HCC-15
Outline: as §1

HCC-827 = system: HCC-827
Outline: as §1

LCLC-97TM1 = system: LCLC-97TM1
Outline: as §1

NCI-H1395 = system: NCI-H1395
Outline: as §1

NCI-H1648 = system: NCI-H1648
Outline: as §1

NCI-H1650 = system: NCI-H1650
Outline: as §1

NCI-H1651 = system: NCI-H1651
Outline: as §1

NCI-H1792 = system: NCI-H1792
Outline: as §1

NCI-H1915 = system: NCI-H1915
Outline: as §1

NCI-H2023 = system: NCI-H2023
Outline: as §1

NCI-H322M = system: NCI-H322M
Outline: as §1

NCI-H358 = system: NCI-H358
Outline: as §1

NCI-H460 = system: NCI-H460
Outline: as §1

NCI-H520 = system: NCI-H520
Outline: as §1

NCI-H647 = system: NCI-H647
Outline: as §1

SK-MES-1 = system: SK-MES-1
Outline: as §1

SW 900 = system: SW 900
Outline: as §1

Question: Which results are given for `Oc1nc(-c2ccc(C(F)(F)F)cc2)nc2c1CSCC2` [XAV939] + CC(=O)c1c(C)c2cnc(Nc3ccc(N4CCNCC4)cn3)nc2n(C2CCCC2)c1=O [Palbociclib] (partner 0.5 µM)?
Answer: relative viability (201T; first compound 0.08 µM): 0.362; relative viability (201T; first compound 0.253 µM): 0.315; relative viability (201T; first compound 0.8 µM): 0.338; relative viability (201T; first compound 2.53 µM): 0.3; relative viability (COR-L 105; first compound 0.08 µM): 0.403; relative viability (COR-L 105; first compound 0.253 µM): 0.399; relative viability (COR-L 105; first compound 0.8 µM): 0.43; relative viability (COR-L 105; first compound 2.53 µM): 0.397; relative viability (COR-L23; first compound 0.08 µM): 0.291; relative viability (COR-L23; first compound 0.253 µM): 0.261; relative viability (COR-L23; first compound 0.8 µM): 0.237; relative viability (COR-L23; first compound 2.53 µM): 0.249; relative viability (EKVX; first compound 0.08 µM): 0.383; relative viability (EKVX; first compound 0.253 µM): 0.343; relative viability (EKVX; first compound 0.8 µM): 0.34; relative viability (EKVX; first compound 2.53 µM): 0.227; relative viability (EPLC-272H; first compound 0.08 µM): 0.342; relative viability (EPLC-272H; first compound 0.253 µM): 0.251; relative viability (EPLC-272H; first compound 0.8 µM): 0.305; relative viability (EPLC-272H; first compound 2.53 µM): 0.332; relative viability (H3255; first compound 0.08 µM): 0.311; relative viability (H3255; first compound 0.253 µM): 0.317; relative viability (H3255; first compound 0.8 µM): 0.314; relative viability (H3255; first compound 2.53 µM): 0.291; relative viability (HCC-15; first compound 0.08 µM): 0.709; relative viability (HCC-15; first compound 0.253 µM): 0.68; relative viability (HCC-15; first compound 0.8 µM): 0.721; relative viability (HCC-15; first compound 2.53 µM): 0.705; relative viability (HCC-827; first compound 0.08 µM): 0.571; relative viability (HCC-827; first compound 0.253 µM): 0.459; relative viability (HCC-827; first compound 0.8 µM): 0.584; relative viability (HCC-827; first compound 2.53 µM): 0.517; relative viability (LCLC-97TM1; first compound 0.08 µM): 0.237; relative viability (LCLC-97TM1; first compound 0.253 µM): 0.204; relative viability (LCLC-97TM1; first compound 2.53 µM): 0.232; relative viability (NCI-H1395; first compound 0.08 µM): 0.644; relative viability (NCI-H1395; first compound 0.253 µM): 0.575; relative viability (NCI-H1395; first compound 0.8 µM): 0.569; relative viability (NCI-H1395; first compound 2.53 µM): 0.568; relative viability (NCI-H1648; first compound 0.253 µM): 0.28; relative viability (NCI-H1648; first compound 0.8 µM): 0.27; relative viability (NCI-H1648; first compound 2.53 µM): 0.216; relative viability (NCI-H1650; first compound 0.08 µM): 0.268; relative viability (NCI-H1650; first compound 0.253 µM): 0.297; relative viability (NCI-H1650; first compound 0.8 µM): 0.299; relative viability (NCI-H1650; first compound 2.53 µM): 0.234; relative viability (NCI-H1651; first compound 0.08 µM): 0.566; relative viability (NCI-H1651; first compound 0.253 µM): 0.521; relative viability (NCI-H1651; first compound 0.8 µM): 0.529; relative viability (NCI-H1651; first compound 2.53 µM): 0.462; relative viability (NCI-H1792; first compound 0.08 µM): 0.777; relative viability (NCI-H1792; first compound 0.253 µM): 0.425; relative viability (NCI-H1792; first compound 0.8 µM): 0.675; relative viability (NCI-H1792; first compound 2.53 µM): 0.558; relative viability (NCI-H1915; first compound 0.08 µM): 0.592; relative viability (NCI-H1915; first compound 0.253 µM): 0.54; relative viability (NCI-H1915; first compound 0.8 µM): 0.567; relative viability (NCI-H1915; first compound 2.53 µM): 0.511; relative viability (NCI-H2023; first compound 0.08 µM): 0.405; relative viability (NCI-H2023; first compound 0.253 µM): 0.291; relative viability (NCI-H2023; first compound 0.8 µM): 0.328; relative viability (NCI-H2023; first compound 2.53 µM): 0.295; relative viability (NCI-H322M; first compound 0.08 µM): 0.521; relative viability (NCI-H322M; first compound 0.253 µM): 0.464; relative viability (NCI-H322M; first compound 0.8 µM): 0.456; relative viability (NCI-H322M; first compound 2.53 µM): 0.433; relative viability (NCI-H358; first compound 0.08 µM): 0.149; relative viability (NCI-H358; first compound 0.253 µM): 0.109; relative viability (NCI-H358; first compound 0.8 µM): 0.154; relative viability (NCI-H358; first compound 2.53 µM): 0.166; relative viability (NCI-H460; first compound 0.08 µM): 0.223; relative viability (NCI-H460; first compound 0.253 µM): 0.177; relative viability (NCI-H460; first compound 0.8 µM): 0.12; relative viability (NCI-H460; first compound 2.53 µM): 0.0927; relative viability (NCI-H520; first compound 0.08 µM): 0.252; relative viability (NCI-H520; first compound 0.8 µM): 0.183; relative viability (NCI-H520; first compound 2.53 µM): 0.211; relative viability (NCI-H647; first compound 0.08 µM): 0.406; relative viability (NCI-H647; first compound 0.253 µM): 0.298; relative viability (NCI-H647; first compound 0.8 µM): 0.277; relative viability (NCI-H647; first compound 2.53 µM): 0.293; relative viability (SK-MES-1; first compound 0.08 µM): 0.288; relative viability (SK-MES-1; first compound 0.253 µM): 0.299; relative viability (SK-MES-1; first compound 0.8 µM): 0.338; relative viability (SK-MES-1; first compound 2.53 µM): 0.297; relative viability (SW 900; first compound 0.253 µM): 0.539; relative viability (SW 900; first compound 0.8 µM): 0.56; relative viability (SW 900; first compound 2.53 µM): 0.285
